Laboratory results taken from patent publication US12059464B2, “Combination therapy involving antibodies against Claudin 18.2 for treatment of cancer” (Astellas Pharma Inc., priority 2012, dated 2024).

How the values were obtained:
[1] = Repeated dose toxicity studies in cynomolgus monkeys; assay type: in vivo; conditions: up to 5 weekly applications of up to 100 mg/kg
Text: (§1) This compartimentalization is lost upon malignant transformation rendering the epitope drugable by IMAB362.

NUGC-4 xenografts = test: In vivo tumor targeting of Dyelight 680-labeled antibodies (fluorescence imaging); parameters: species or system nude mice
[2] = system: NUGC-4 gastric cancer cells; test: IMAB362-mediated ADCC on chemotherapy-pretreated NUGC-4 cells; assay type: cell-based, human; conditions: NUGC-4 pretreated with 5-FU+OX, EOF or FLO for 96 hours
Procedure: IMAB362-mediated ADCC was investigated using NUGC-4 gastric cancer cells as target, which were either pretreated with 10 ng/ml 5-FU and 500 ng/ml oxaliplatin (5-FU+OX), 10 ng/ml epirubicin, 500 ng/ml oxaliplatin and 10 ng/ml 5-FU (EOF) or 10 ng/ml 5-FU, 50 ng/ml folinic acid and 500 ng/ml oxaliplatin (FLO) for 96 hours (effector:target ratio 40:1) or untreated. EC50 values were obtained from 7 healthy donors for untreated and EOF, FLO or 5-FU+OX pretreated NUGC-4 cells.

[3] = Repeated dose toxicity study in mice; assay type: in vivo; conditions: weekly administration for 3 months, highest dose levels 400 mg/kg
Text: as §1

[4] = Toxicity and PK/TK profile studies (all toxicity studies); assay type: in vivo, mice and cynomolgus monkeys
Text: as §1

[5] = system: NCI-N87~CLDN18.2 xenograft tumors; test: IMAB362 immunotherapy of NCI-N87~CLDN18.2 gastric carcinoma xenografts
Text: NCI-N87˜CLDN18.2 xenograft tumors were inoculated subcutaneously by injection of 1×10^7 NCI-N87˜CLDN18.2 cells into the flank of 8 nude mice (female, 6 weeks old) per treatment group. […] Intravenous administration was continued weekly for the whole observation time. Tumor size and animal health was monitored semi-weekly. […] Mice were sacrificed, when tumor reached a volume of 1400 mm^3

[6] = system: HEK293~CLDN18.2 transfectants; test: Early treatment of HEK293~CLDN18.2 tumor xenografts; assay type: in vivo, nude mice; conditions: 200 μg twice per week for 6 weeks i.v./i.p., start 3 days after inoculation
Text: (§2) Moreover, advanced tumor treatment experiments were initiated up to 9 days after tumor cell inoculation when tumors had reached volumes of about 60-120 mm^3.
Nude mice were subcutaneously inoculated with 1×10^7 HEK293˜CLDN18.2 transfectants. Treatment of 10 mice per group started 3 days after tumor inoculation. […] Not only time to death was prolonged, but 4 of 10 mice survived the entire observation period of 210 days.

[7] = system: HEK293~CLDN18.2 tumor xenografts; test: Treatment of advanced HEK293~CLDN18.2 tumor xenografts; assay type: in vivo, nude mice
Text: as §2
(§3) Treatment of 9 to 10 mice per group was initiated when mean tumor volumes reached 88 mm^3 (62-126 mm^3). […] All mice in the groups treated with either PBS or isotype control died within 50-100 days. […] Three of these mice survived the entire observation period (FIG. 20). Importantly, antitumoral efficacy in vivo depends on the presence of the target on the tumor cells.

[8] = system: CLDN18.2-negative HEK293 tumor cells; test: IMAB362 treatment of mice engrafted with CLDN18.2-negative tumor cells; assay type: in vivo; conditions: CLDN18.2-negative tumors
Text: as §3

[9] = system: CLDN18.2-positive (NUGC-4, KATO III) and negative (SK-BR-3) human target cell lines; test: IMAB362 ADCC with ZA/IL-2 expanded effector cells on CLDN18.2-positive and negative target cell lines; assay type: cell-based
Procedure: These effector cell cultures were used in ADCC assays with CLDN18.2-positive (NUGC-4, KATO III) and negative (SK-BR-3) human target cell lines (E:T ratio 40:1). […] ADCC was measured in luciferase assays; cf. FIG. 15a. […] FIG. 15b. Same experiment as described in (a) was performed using NUGC-4 as target cells; cf. FIG. 15c. […] A purity of more than 97.0% Vγ9Vδ2 T cells in lymphocytes was obtained.

[10] = system: CLDN18.2-transfected HEK293 cells; test: IMAB362 with ZA/IL-2 induced Vγ9Vδ2 T cells on HEK293~CLDN18.2 tumors in NSG mice; assay type: in vivo; conditions: 200 μg IMAB362 semi-weekly in the presence of human γδ T cells and ZA (plus IL-2)
Procedure: NSG mice lack mature T cells, B cells, natural killer (NK) cells, multiple cytokine signaling pathways, and they have many defects in innate immunity, whereas the niches in the primary and secondary immunological tissues are permissive to colonization by human immune cells.
NSG mice were inoculated subcutaneously with 1×10^7 CLDN18.2-transfected HEK293 cells. On the same day, mice received 8×10^6 human PBMCs enriched for Vγ9Vδ2 T cells, which were cultured for 14 days in ZA-supplemented medium. […] To maintain human T cells functional, IL-2 was administered semi-weekly and ZA weekly. […] In addition to 9 mice treated as described, two control groups of mice were established.

[11] = Phase I clinical study, single intravenous administration; assay type: in vivo, human
Text: IMAB362 is in early clinical testing. A phase I clinical study has been conducted in human. […] In an ongoing phase IIa clinical study IMAB362 is given repetitively.

[12] = system: NUGC-4 cells expressing CLDN18.2; test: IMAB362 ADCC on NUGC-4 cells with PBMCs cultivated with IL-2 with or w/o ZA (luciferase assay); assay type: cell-based, human; conditions: PBMCs cultivated for 14 days with ZA/IL-2; IMAB362 0.26 ng/ml-200 μg/ml
Procedure: Specific killing was determined in luciferase assays; cf. FIG. 14a. […] NUGC-4 served as target cells.

[13] = system: NUGC-4~CLDN18.2 xenografts; test: IMAB362 immunotherapy of NUGC-4~CLDN18.2 xenografts; parameters: species or system mice; conditions: mouse, in vivo
[14] = system: NUGC-4~CLDN18.2 xenograft tumors; test: Combination therapy with IMAB362 and EOF regimen on NUGC-4~CLDN18.2 xenografts; assay type: in vivo, nude mice; conditions: chemotherapy day 3, 10, 17, 24; IMAB362 weekly
Procedure: Mice were treated on day 3, 10, 17 and 24 with chemotherapeutic agents. IMAB362 treatment was continued weekly.

[15] = system: NUGC-4 gastric cancer cells; test: NUGC-4 gastric tumor xenograft model
Text: Tumor sizes were monitored twice weekly.
Mice were stratified size-dependently into treatment groups (FIG. 21).

[16] = molecular target: first extracellular domain (ECD1) of CLDN18.2 (Homo sapiens, UniProt P56856); test: Binding of IMAB362 to CLDN18.2
[17] = system: CLDN18.2-positive cancer cell lines; test: IMAB362 treatment of mice bearing CLDN18.2-positive cancer cell lines; conditions: mouse, in vivo
[18] = system: NCI-N87~CLDN18.2 xenograft tumors; test: Combination therapy with IMAB362 and EOF regimen on NCI-N87~CLDN18.2 xenografts
Procedure: NCI-N87˜CLDN18.2 xenograft tumors were inoculated by injection of 1×10^7 NCI-N87˜CLDN18.2 cells subcutaneous into the flank of 9 mice for each treatment group. […] Tumor size and animal health was monitored semi-weekly. […] The size of s.c. tumors was measured twice weekly (mean+SEM; *p<0.05). […] Mice were sacrificed, when tumor reached a volume of 1400 mm^3.

[19] = system: CLS-103~cldn18.2 allograft tumors; test: Combination therapy with IMAB362 and EOF on CLS-103~cldn18.2 allograft tumors; assay type: in vivo, NMRI mice; conditions: EOF i.p. day 3, 10, 17, 24; IMAB362 800 μg i.v.; IL-2 3000 IE s.c. semi-weekly
Text: CLS-103˜cldn18.2 allograft tumors were inoculated by injection of 1×10^6 CLS-103˜cldn18.2 cells subcutaneous into the flank of 10 NMRI mice for each treatment group. […] After end of chemotherapy, IMAB362 and IL-2 treatment was continued for the whole observation period. Tumor size and animal health were monitored semi-weekly.

CLS103 cells = system: CLS103 cells
Procedure: (§4) Furthermore, human stomach cancer cells (NUGC-4-luciferase) and murine stomach cancer cells (CLS103-calcein stained) were pretreated with or w/o 5 μM ZA for 2 days. Human Vγ9Vδ2 T cells were MACS purified (day 14) and co-cultured with the cancer cells for 24 h. Cytotoxicity of Vγ9Vδ2 T cells towards non-treated and ZA-treated target cells was determined by measuring remaining luciferase activity or calcein fluorescence; cf. FIG. 11b. Target cells (NUGC-4 and CLS103) were pretreated with or w/o 5 μM ZA for 2 days and subsequently incubated for 4 h with mitomycin c ([…]) to stop proliferation. MACS purified human 14d old resting Vγ9Vδ2 T cells and ^3H-thymidine were added to the target cells and co-cultures were incubated for 48 h at 37° C. Proliferation was determined by measuring ^3H thymidine incorporation in the DNA using a MicroBeta scintillation counter. Proliferation of target cells not treated with ZA and w/o Vγ9Vδ2 T cells was set to 100%; cf. FIG. 11c.

NUGC-4 cells = assay type: cell-based, human
Procedure: as §4

Vγ9Vδ2 T cells = test: Enrichment of Vγ9Vδ2 T cells in co-culture with monocytes ± ZA; assay type: cell-based, human; conditions: co-cultures 14 days, ±1 μM ZA
Procedure: The enrichment of Vγ9Vδ2 T cells in the co-cultures after 14 days was determined by multicolor FACS, whereas the expansion of the culture was considered in the calculation. The enrichment factor of Vγ9Vδ2 T cells cultured with monocytes in a 1:4 ratio was set to 100% for each experiment. […] This effect was clearly ZA-dependent; cf. FIG. 11a.

PBMCs = test: Expansion of PBMC cultures with ZA/IL-2; assay type: cell-based, human; conditions: 14 days, 300 U/ml IL-2
Procedure: PBMCs were harvested from healthy human donors and cultures were treated with a single dose of ZA. […] FIG. 8a. […] FIG. 8b. Increase in cell numbers was determined by counting living cells on day 6, 8, 11 and 14.

IMAB362: chimeric IgG1 antibody directed against CLDN18.2, developed by Ganymed Pharmaceuticals AG
tolerability of repeated i.v. doses [1]: well tolerated | localisation of labeled antibody, live imaging (NUGC-4 xenografts; 24 hours after i.v. injection, 80 μg Dyelight 680-labeled antibody): accumulates strongly and exclusively in the tumor xenografts | retention of labeled antibody signal in tumor (NUGC-4 xenografts; 120 hours after injection): detectable in comparable intensity even after 120 hours | maximal lysis in IMAB362-mediated ADCC versus untreated target cells [2]: higher maximal lysis | tolerability of repeated i.v. doses [3]: well tolerated | gastric toxicity ([4]; any toxicity study): no gastric toxicity | adverse effects on male or female reproductive organs ([4]; in vivo): No adverse effects | immune activation and cytokine release ([4]; in vivo): does not induce immune activation and cytokine release | systemic or local toxicity ([4]; repeated i.v. doses): No signs of systemic or local toxicity | tumor growth ([5]; 800 μg i.v. weekly from day 5, versus saline): inhibited highly significant (p<0.001) tumor growth | survival time ([5]; 800 μg i.v. weekly, sacrifice at 1400 mm^3): significantly (p<0.05) longer survival time | mice surviving the entire observation period of 210 days [6]: 4 of 10 | median survival time ([7]; 200 μg twice per week for 6 weeks, start at mean tumor volume 88 mm^3, controls 25 days): 47 days | mice surviving the entire observation period ([7]; 9 to 10 mice per group): Three | antitumoral effects [8]: No antitumoral effects | ADCC activity with purified (>97%) Vγ9Vδ2 T cells ([9]; NUGC-4 targets, cells sorted from ZA/IL-2-cultured PBMC on day 14): retained and partly improved | ADCC activity on CLDN18.2-positive versus CLDN18.2-negative cell lines ([9]; ZA/IL-2 cultured effector cells, E:T ratio 40:1): Strong ADCC activity against CLDN18.2-positive, but not CLDN18.2-negative human tumor cell lines | outgrowth of CLDN18.2-positive tumors [10]: significantly inhibited and nearly abrogated | tolerability in patients ([11]; single i.v. administration, 33-1000 mg/m^2, observed for 28 days): very well tolerated | tumor markers in one patient ([11]; within 4 weeks after treatment): decreased significantly | ADCC activity against CLDN18.2-positive NUGC-4 cells [12]: Strong IMAB362-dependent ADCC activity | survival [13]: significantly (p<0.05) longer survival | tumor sizes at day 14 of treatment [13]: significant (p<0.05) smaller tumor sizes | tumor growth [14]: inhibited significantly the tumor growth | tumor growth compared to controls ([15]; 200 μg twice weekly i.v./i.p. starting 6 days after inoculation, p<0.05): significant inhibited | tumor volumes at day 21 after tumor inoculation compared to control mice ([15]; p<0.05): significant smaller | median survival time ([15]; treatment initiated at about 109 mm^3, versus 25 days, non-significant): 31 days | tumor growth rate ([15]; treatment initiated at mean tumor size of about 109 mm^3): significantly reduce tumor growth rate | affinity and specificity for CLDN18.2 ECD1 [16]: high affinity and specificity | mice showing regression of their tumor [17]: up to 40% | tumor growth ([18]; EOF i.p. day 4, 11, 18, 25, IMAB362 800 μg i.v. weekly): highly significant suppressed tumor growth | median survival ([18]; saline control 59 days, sacrifice at 1400 mm^3): 76 days | tumor growth inhibition [19]: no significant tumor growth inhibition

O=P(O)(O)C(O)(Cn1ccnc1)P(=O)(O)O [ZA, [1-hydroxy-2-(1H-imidazol-1-yl)ethane-1,1-diyl]bis(phosphonic acid)]
activation of Vγ9Vδ2 T cells (cytotoxicity and proliferation) by ZA-pulsed cancer cells (CLS103 cells): failed to elicit these effects | activation of Vγ9Vδ2 T cell cytotoxicity by ZA-pulsed cancer cells (NUGC-4 cells): 5-10 fold | enrichment of Vγ9Vδ2 T cells with increase of monocytes in the culture (ZA-dependent) (Vγ9Vδ2 T cells): more than 10 fold | lower expansion of cells in medium without ZA versus with ZA (PBMCs): about 2 fold
